From patent US20100196512A1, “Treatment of Non-Oral Biological Tissue with Chlorine Dioxide” (priority 2009, published 2010) come the findings set out here.

In test [1] the test system is methicillin resistant Staphylococcus aureus (MRSA) biofilm. Kind of test: Kill of MRSA biofilm grown on ceramic disks by chlorine dioxide solution. Type of test: cell-based. From the text: (§1) Chlorine dioxide treatment involves exposing micro-organisms to chlorine dioxide for a period of time. Treatment conditions, often called the “dose or dosage” of chlorine dioxide, can be determined by calculating the integral of the chlorine dioxide concentration as a function of time, C(t), over the treatment time of use:
(§2) In systems where the chlorine dioxide concentration is generally constant over the treatment time (e.g., varies by less than ±10% relative) or varies linearly over the treatment time, an average chlorine dioxide concentration may be calculated by averaging the starting and ending concentrations and then multiplying that average chlorine dioxide concentration during an exposure period by the time of exposure (Average Concentration X Time). Dose is commonly given in units of ppm-minutes.
(§3) A series of experiments were conducted to estimate the dose of chlorine dioxide needed to kill bacterial biofilms consisting of Pseudomonas aeruginosa (PA), methicillin resistant Staphylococcus aureus (MRSA), or a combination of both.
(§4) Bacterial biofilms were grown for between 7 and 10 days on non-porous ceramic disks in a spinning disk biofilm reactor. The reactors were inoculated with PA, MRSA, or a mixture of MRSA and PA bacteria to produce PA, MRSA, or mixed PA/MRSA biofilms respectively.
(§5) Chlorine dioxide solutions were produced at different nominal concentrations using ASEPTROL® S-Tab 10 tablets, and the exact concentrations were then measured using a Hach Model 2400 UV/Vis spectrophotometer in accordance with the manufacturer's instructions. Pairs of biofilm-containing disks were immersed for different times in solutions of different chlorine dioxide concentrations, neutralized with dilute sodium thiosulfate solution, and then plated to determine the number of surviving bacteria on each disk. Two untreated disks were also exposed to neutralizing solution and plated to determine the starting bacterial counts. In all tests, the baseline bacterial counts were in the range of 10^7 to 10^7.5 colony-forming units per disk (cfu/disk). A one log reduction refers to reducing the cfu/disk by one order of magnitude, e.g., a reduction from 10^7.1 cfu/disk to 10^6.1 cfu/disk. Accordingly, a substantially complete kill is achieved if the log reduction of bacteria is about 7 to 7.5.
(§6) The table summarizes the test conditions used in the different experiments, and presents the results in terms of log reduction of the different bacterial organisms. In the case of mixed PA/MRSA biofilms, results are given as total bacteria.

In test [2] the test system is Pseudomonas aeruginosa (PA) biofilm. Kind of test: Kill of PA biofilm grown on ceramic disks by chlorine dioxide solution. Type of test: cell-based.
From the text: as §1, §2, §3, §4, §5, §6

For test [3], the system named is mixed PA/MRSA biofilm (total bacteria). Kind of test: Kill of mixed PA/MRSA biofilm grown on ceramic disks by chlorine dioxide solution. In kind it is cell-based, Staphylococcus aureus and Pseudomonas aeruginosa. The settings on record: for Log Reduction in Organism Count: MRSA + PA biofilm, total bacteria.
From the text: as §1, §2, §3, §4, §5, §6

With `[O][Cl+][O-]` [ClO2, chlorine dioxide], the “Log Reduction in Organism Count” value came out at 5.5 in test [1] (Sample 1, exposure 1.0 minutes, ClO2 208 ppm, 208 ppm-min); 7.1 in test [1] (Sample 2, exposure 5.0 minutes, ClO2 204 ppm, 1020 ppm-min); 5.1 in test [1] (Sample 3 (second line), exposure 30.0 minutes, ClO2 40 ppm, 1200 ppm-min); 5.5 in test [1] (Sample 3, exposure 10.0 minutes, ClO2 45 ppm, 450 ppm-min); 7.1 in test [1] (Sample 4, exposure 30.0 minutes, ClO2 175 ppm, 5250 ppm-min); 5.9 in test [2] (Sample 6, exposure 0.5 minutes, ClO2 200 ppm, 100 ppm-min). The “Log Reduction in Organism Count” value turned out to be 5.7 in test [2] (Sample 7, exposure 5.0 minutes, ClO2 43 ppm, […]-min); 7.5 in test [2] (Sample 8, exposure 5.0 minutes, ClO2 187 ppm, 935 ppm-min); 7.5 in test [2] (Sample 9, exposure 10.0 minutes, ClO2 37 ppm, 370 ppm-min); 7.5 in test [2] (Sample 10, exposure 50.0 minutes, ClO2 35 ppm, 1750 ppm-min); 7.5 in test [2] (Sample 11, exposure 50.0 minutes, ClO2 166 ppm, 8300 ppm-min); 5.5 in test [3] (Sample 12, exposure 10.0 minutes, ClO2 52 ppm, 520 ppm-min). The “Log Reduction in Organism Count” value was found to be 7.4 in test [3] (Sample 13, exposure 30.0 minutes, ClO2 52 ppm, 1560 ppm-min); 5.1 in test [3] (Sample 14, exposure 1.0 minutes, ClO2 181 ppm, 181 ppm-min); 7.4 in test [3] (Sample 15, exposure 5.0 minutes, ClO2 160 ppm, 800 ppm-min); 7.4 in test [3] (Sample 16, exposure 30.0 minutes, ClO2 160 ppm, 4800 ppm-min). Also, the “dose for a kill of about 5 orders of magnitude (5 log)” value in test [1] (see Sample 1) is listed as “greater than 200 ppm-min”; in test [2] (see Sample 7), “greater than 200 ppm-min”; in test [3] (mixed PA/MRSA biofilm, see Sample 12), “greater than 200 ppm-min”.
